Read-outs that look alike come from different tables or passages of the source.
Assays:
[1] = test system: Peripheral blood mononuclear cells (PBMC); assay type: cell-based; settings: human, 7 days
Procedure, shortened: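 Cytotoxicity measured after 7 days of compound exposure by MTS conversion (OD 490 nm, 4 h). The cells were PHA-activated (5 µg/mL, 2 days) donor PBMC, cultured with 20 IU/mL IL-2 at 1x10^5 cells/well. TD50 is the dose killing 50% versus untreated control, read from the dose-mortality curve.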

[2] = test system: HIV-1 reference strain NL4-3; experiment: BiCycle assay (MT-2 then TZM-bl cells); assay type: cell-based
Procedure, shortened: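 MT-2 cells were infected with NL4-3 in the presence of five-fold compound dilutions. After 72 h, the supernatant was passed to TZM-bl cells. Two days later, luciferase luminescence was read and IC50 calculated, giving a readout that spans the whole replication cycle.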

HIV-1 integrase = biological target: T1, HIV-1 integrase (Human immunodeficiency virus type 1 group M subtype B, UniProt P04585); experiment: HIV-integrase assay (strand transfer kit); assay type: biochemical
T1 construct: Full-length recombinant HIV-1 integrase protein was loaded onto the DS DNA substrate; purchased Xpress Bio Co EZ-1700
Procedure: The integrase assay was performed using the HIV-1 integrase assay kit (Xpress Bio Co, catalog number EZ-1700, Thurmont, MD) according to the manufacturer's instructions. In this assay the streptavidin-coated 96-well plates were used and coated with a double stranded HIV-1 LTR U5 donor substrate (DS) DNA containing an end-labeled biotin. Full-length recombinant HIV-1 integrase protein was loaded onto the DS DNA substrate. After, the compounds were added in the concentration 5 - 1500 µM, and then a different double-stranded target substrate (TS) DNA containing a 3'-end modification was added to the reaction mixture. The HIV-1 integrase cleaved the terminal two bases from the exposed 3'-end of the HIV-1 LTR DS DNA and then catalyzed a strand-transfer recombination reaction to integrate the DS DNA into the TS DNA. The products of the reaction were detected colorimetrically using an HRP-labeled antibody directed against TS 3'-end modification. […] The percentage of DMSO was fixed at 2.5% v/v in all samples. The absorbance at 450 nm was recorded with an iMark™ Microplate Absorbance Reader (Bio-Rad Laboratories). The absorbance values were corrected from the mean blank absorbance (reaction buffer negative control). To calculate the IC50 values, the experimental data were fitted in a logarithm scale using Origin software (Dose response fitting).

HeLa cells = experiment: HeLa Proliferation assay (CellTiter Glo); assay type: cell-based; settings: 72 hours
Procedure, shortened: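 Viability measured with CellTiter Glo after 72 h compound exposure (37 °C, 5% CO2, humidified) of HeLa cells seeded at 2000 per well in 10% FBS DMEM without phenol red and allowed 4 h recovery.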

[3] = Human immunodeficiency virus 1, NL43, TZM-bl, read-out: BiCycle IC50 nM
[4] = Human immunodeficiency virus 1, NL43, MT-2 cells 72 hours then TZM-bl cells two days, NL4-3, read-out: BiCycle IC50

C[C@@H](NC(=O)c1nc(-c2cc(Cl)ccn2)nc(O)c1O)C1CCCCC1 [Compound 26, (R)-2-(4-chloropyridin-2-yl)-N-(1-cyclohexylethyl)-5,6-dihydroxypyrimidine-4-carboxamide]
Proliferation assay PBMC TD50 [1]: 2490 nM
IC50 [2, 3]: 121 nM
IC50 (HIV-1 integrase): 150000 nM
fold increase in IN IC50 values in comparison to NC Inhibition IC50 values (HIV-1 integrase; IN IC50 / NC inhibition IC50): 100 fold
Proliferation assay HELA TD50 (HeLa cells): 3197.7 nM

CC1CCCCC1NC(=O)c1nc(-c2ccccn2)nc(O)c1O (centres unmarked) [Compound 59, 5,6-dihydroxy-N-(2-methylcyclohexyl)-2-(pyridin-2-yl)pyrimidine-4-carboxamide]
Proliferation assay PBMC TD50 [1]: 2180 nM
IC50 [2, 3]: 408 nM
Proliferation assay HELA TD50 (HeLa cells): 694.6 nM

C[C@@H](NC(=O)c1nc(-c2ccc(NC(=O)OC(C)(C)C)cn2)nc(O)c1O)C1CCCCC1 [Compound 61, tert-butyl (R)-(6-(4-((1-cyclohexylethyl)carbamoyl)-5,6-dihydroxypyrimidin-2-yl)pyridin-3-yl)carbamate]
Proliferation assay PBMC TD50 [1]: 2400 nM
IC50 [2, 3]: 210 nM
Proliferation assay HELA TD50 (HeLa cells): 2035.8 nM

CC(=O)Nc1ccc(-c2nc(O)c(O)c(C(=O)N[C@H](C)C3CCCCC3)n2)nc1 [Compound 62, (R)-2-(5-acetamidopyridin-2-yl)-N-(1-cyclohexylethyl)-5,6-dihydroxypyrimidine-4-carboxamide]
Proliferation assay PBMC TD50 [1]: 1870 nM
IC50 [2, 3]: 252 nM
Proliferation assay HELA TD50 (HeLa cells): 4551.9 nM

CC(C)(CNC(=O)c1nc(-c2ccccn2)nc(O)c1O)C1CCCC1 [Compound 63, N-(2-cyclopentyl-2-methylpropyl)-5,6-dihydroxy-2-(pyridin-2-yl)pyrimidine-4-carboxamide]
Proliferation assay PBMC TD50 [1]: 2100 nM
IC50 [2, 3]: 125 nM
Proliferation assay HELA TD50 (HeLa cells): 398.6 nM

C[C@H](CC1CCCCC1)NC(=O)c1nc(-c2ccccn2)nc(O)c1O [Compound 64, (R)-N-(1-cyclohexylpropan-2-yl)-5,6-dihydroxy-2-(pyridin-2-yl)pyrimidine-4-carboxamide]
Proliferation assay PBMC TD50 [1]: 2500 nM
IC50 [2, 3]: 210 nM
Proliferation assay HELA TD50 (HeLa cells): 471.7 nM

CC(NC(=O)c1nc(-c2ccccn2)nc(O)c1O)C1CCCC1 (centres unmarked) [Compound 65, N-(1-cyclopentylethyl)-5,6-dihydroxy-2-(pyridin-2-yl)pyrimidine-4-carboxamide]
Proliferation assay PBMC TD50 [1]: 3100 nM
IC50 [2, 3]: 330 nM
Proliferation assay HELA TD50 (HeLa cells): 883.9 nM

COc1ccc2nc(-c3nc(O)c(O)c(C(=O)N[C@H](C)C4CCCCC4)n3)ccc2c1 [Compound 66, (R)-N-(1-cyclohexylethyl)-5,6-dihydroxy-2-(6-methoxyquinolin-2-yl)pyrimidine-4-carboxamide]
Proliferation assay PBMC TD50 [1]: 6600 nM
IC50 [2, 3]: 1970 nM
Proliferation assay HELA TD50 (HeLa cells): 3660 nM

Cc1ccc(-c2nc(O)c(O)c(C(=O)N[C@H](C)C3CCCCC3)n2)nc1C [Compound 67, (R)-N-(1-cyclohexylethyl)-2-(,5,6-dimethylpyridin-2-yl)-5,6-dihydroxypyrimidine-4-carboxamide]
Proliferation assay PBMC TD50 [1]: 6700 nM
IC50 [2, 4]: 1340 nM
Proliferation assay HELA TD50 (HeLa cells): 3757.7 nM

COc1cc(-c2nc(O)c(O)c(C(=O)N[C@H](C)C3CCCCC3)n2)nc2ccccc12 [Compound 68, N-[(1R)-1-cyclohexylethyl]-2-(4-methoxyquinolin-2-yl)-5,6-bis(oxidanyl)pyrimidine-4-carboxamide]
Proliferation assay PBMC TD50 [1]: 2660 nM
IC50 [2, 4]: 240 nM
Proliferation assay HELA TD50 (HeLa cells): 5700.7 nM

COc1ccnc(-c2nc(O)c(O)c(C(=O)N[C@@H](C)C3CCCCC3)n2)c1 [Compound 69, N-[(1S)-1-cyclohexylethyl]-2-(4-methoxypyridin-2-yl)-5,6-bis(oxidanyl)pyrimidine-4-carboxamide]
Proliferation assay PBMC TD50 [1]: 7110 nM
IC50 [2, 3]: 357 nM
Proliferation assay HELA TD50 (HeLa cells): 3899.9 nM

C[C@@H](NC(=O)c1nc(-c2cc(N3CCN(C)CC3)ccn2)nc(O)c1O)C1CCCCC1 [Compound 76, (R)-N-(1-cyclohexylethyl)-5,6-dihydroxy-2-(4-(4-methylpiperazin-1-yl)pyridin-2-yl)pyrimidine-4-carboxamide]
Proliferation assay PBMC TD50 [1]: 2500 nM
IC50 [2, 3]: 565 nM
Proliferation assay HELA TD50 (HeLa cells): 3683.1 nM

COc1ccnc(-c2nc(O)c(O)c(C(=O)NC3CCC(C)(C)CC3)n2)c1 [Compound 77, N-(4,4-dimethylcyclohexyl)-5,6-dihydroxy-2-(4-methoxypyridin-2-yl)pyrimidine-4-carboxamide]
Proliferation assay PBMC TD50 [1]: 2200 nM
IC50 [2, 3]: 1170 nM
Proliferation assay HELA TD50 (HeLa cells): 2257.8 nM

C[C@H](NC(=O)c1nc(-c2cc(Cl)ccn2)nc(O)c1O)C1CCCCC1 [Compound 78, (S)-2-(4-chloropyridin-2-yl)-N-(1-cyclohexylethyl)-5,6-dihydroxypyrimidine-4-carboxamide]
Proliferation assay PBMC TD50 [1]: 1900 nM
IC50 [2, 3]: 285 nM
Proliferation assay HELA TD50 (HeLa cells): 2357.6 nM

Cc1ccnc(-c2nc(O)c(O)c(C(=O)N[C@@H](C)C3CCCCC3)n2)c1 [Compound 79, (S)-N-(1-cyclohexylethyl)-5,6-dihydroxy-2-(4-methylpyridin-2-yl)pyrimidine-4-carboxamide]
Proliferation assay PBMC TD50 [1]: 2300 nM
IC50 [2, 3]: 178 nM
Proliferation assay HELA TD50 (HeLa cells): 1723.3 nM

C[C@H](NC(=O)c1nc(-c2nccc3ccccc23)nc(O)c1O)C1CCCCC1 [Compound 80, (S)-N-(1-cyclohexylethyl)-5,6-dihydroxy-2-(isoquinolin-1-yl)pyrimidine-4-carboxamide]
Proliferation assay PBMC TD50 [1]: 2000 nM
IC50 [2, 3]: 144 nM
Proliferation assay HELA TD50 (HeLa cells): 1611.2 nM

C[C@H](NC(=O)c1nc(-c2ccc(N)cn2)nc(O)c1O)C1CCCCC1 [Compound 81, (S)-2-(5-aminopyridin-2-yl)-N-(1-cyclohexylethyl)-5,6-dihydroxypyrimidine-4-carboxamide]
Proliferation assay PBMC TD50 [1]: 1400 nM
IC50 [2, 3]: 222 nM
Proliferation assay HELA TD50 (HeLa cells): 542.5 nM

CC(NC(=O)c1nc(-c2cc(Cl)ccn2)nc(O)c1O)C1CCC(F)(F)CC1 (centres unmarked) [Compound 87, 2-(4-chloropyridin-2-yl)-N-(1-(4,4-difluorocyclohexyl)ethyl)-5,6-dihydroxypyrimidine-4-carboxamide]
Proliferation assay PBMC TD50 [1]: 3220 nM
IC50 [2, 3]: 1830 nM
Proliferation assay HELA TD50 (HeLa cells): 6158 nM

C[C@@H](NC(=O)c1nc(-c2cc(CCN)ccn2)nc(O)c1O)C1CCCCC1 [Compound 88, (R)-2-(4-(2-aminoethyl)pyridin-2-yl)-N-(1-cyclohexylethyl)-5,6-dihydroxypyrimidine-4-carboxamide]
Proliferation assay PBMC TD50 [1]: 3250 nM
IC50 [2, 3]: 12700 nM
Proliferation assay HELA TD50 (HeLa cells): 7133.8 nM

CCNS(=O)(=O)c1ccc(-c2nc(O)c(O)c(C(=O)N[C@H](C)C3CCCCC3)n2)nc1 [Compound 89, (R)-N-(1-cyclohexylethyl)-2-(5-(N-ethylsulfamoyl)pyridin-2-yl)-5,6-dihydroxypyrimidine-4-carboxamide]
Proliferation assay PBMC TD50 [1]: 3290 nM
IC50 [2, 3]: 10400 nM
Proliferation assay HELA TD50 (HeLa cells): 12629 nM

C[C@@H](NC(=O)c1nc(-c2cc(CCNCc3cccn3C)ccn2)nc(O)c1O)C1CCCCC1 [Compound 91, (R)-N-(1-cyclohexylethyl)-5,6-dihydroxy-2-(4-(2-(((1-methyl-1H-pyrrol-2-yl)methyl)amino)ethyl)pyridin-2-yl)pyrimidine-4-carboxamide]
Proliferation assay PBMC TD50 [1]: 1090 nM
IC50 [2, 3]: 1100 nM
Proliferation assay HELA TD50 (HeLa cells): 1160.4 nM

C[C@@H](NC(=O)c1nc(-c2cc(CCN(C)C)ccn2)nc(O)c1O)C1CCCCC1 [Compound 92, (R)-N-(1-cyclohexylethyl)-2-(4-(2-(dimethylamino)ethyl)pyridin-2-yl)-5,6-dihydroxypyrimidine-4-carboxamide]
Proliferation assay PBMC TD50 [1]: 2020 nM
IC50 [2, 3]: 1400 nM
Proliferation assay HELA TD50 (HeLa cells): 1168.4 nM

Cc1nnc(C(=O)NC(C)(C)c2nc(C(=O)NCc3ccc(F)cc3)c(O)c(=O)n2C)o1 [Raltegravir™, Raltegravir, reference compound]
TD50 [1]: > 50 µM
EC50 ([2]; Human immunodeficiency virus 1, NL43, TZM-bl, read-out: Mean EC50 (nM)): 1 nM
inhibition at 0.175 µM (HIV-1 integrase; read-out: % of inhibition (positive control)): ≥ 97%
